Reference: patent US20110218515A1, “Methods for Treating Acute Myocardial Infarctions and Associated Disorders” (The Regents of the University of California, priority 2009, published 2011)

System: ischemia-reperfusion rat model
Assay: Optical mapping, programmed stimulation and VT inducibility of excised hearts 5 wks after MI
Type: in vivo, Sprague-Dawley rats
Conditions: for conduction heterogeneity vs control: all tested cycle lengths; for rise times of border zones vs control: significant at lowest PCL
Description: After baseline echocardiography, thirty male Sprague-Dawley rats, ages 6-10 weeks, underwent myocardial infarction using an ischemia-reperfusion model. Briefly, rats were anesthetized using inhaled isoflurane (5% induction, 2.5% maintenance, O2 output 1 L/min) and positioned supine on an electrically warmed animal surgery platform. Rats were intubated using a 16-gauge i.v. catheter and then ventilated using a Harvard rodent respirator. After a left thoracotomy and pericardiotomy were performed, a 7-0 Ticron suture was introduced into the myocardium, using the left atrial appendage and right outflow tract as landmarks. The depth of entry was 2 mm, which was slightly greater than the level of the left coronary artery. Both suture ends were then threaded through a PE-90 polyethylene tube 6 in. in length to form a “snare loop” around the artery, closed by pulling on the free ends of the suture. […] The suture was then tightened to occlude the artery for 20 minutes and then removed to allow for reperfusion. The chest was then closed with 5-0 prolene suture, and the animal was allowed to recover. After one week and repeat echocardiography, rats were randomized to placebo rodent feed (control group, n=15) or rodent feed mixed with 1.2% pirfenidone (PFD) (treatment group, n=15) for four weeks. All experiments and data analyses were performed with the operator blinded to treatment group. Optical mapping is a technique to perform high-resolution electrophysiologic evaluation of the cardiac tissue. To summarize the procedure, ten thousand simultaneous optical action potentials were recorded with a 100×100 CMOS camera within a 19 mm×19 mm mapping field on the epicardium of the LV anterior wall. Using a 1000-W tungsten-halogen light source, fluorescence was excited with an excitation filter of 530 nm and transmitted with an emission long-pass filter of >630 nm. Fluorescent optical maps were acquired at 2000 Hz during programmed electrical stimulation. Optical mapping was performed 5 wks after MI. Rats were injected with heparin (500 U ip) 15 min before excision of the heart, and were then anesthetized with pentobarbital sodium (50 mg/kg ip). After adequate anesthesia, the heart was rapidly excised and arrested by immersion in cold cardioplegia solution. The aorta was cannulated and retrogradely perfused, at a rate of 6 mL/min, with 37° C. modified Tyrode solution containing (in mmol/L): 130 NaCl, 20.0 NaHCO3, 1.2 MgCl2, 4.0 KCl, 5.6 glucose, and 1.8 CaCl2, gassed with 95% 02/5% C02. Extraneous tissue was carefully removed from the heart. The cannulated heart was then placed in 37° C. Tyrode solution in a specialized temperature-controlled optical recording chamber (maintained at 37° C.) while ECG, perfusion rate, and temperature were measured continuously for the duration of the experiment. Before optical recordings, Tyrode solution containing voltage-sensitive dye PGH I (10 μL of 5 mM stock solution) was perfused through the preparation over a 5-min period. Once a cannulated heart was perfused with PGH I, it was placed in the optical chamber with its LV anterior wall pressed against the imaging window. […] During optical recordings, contractility was blocked with 15 mM butadione monoxime (BDM). Ventricular epicardium bipolar pacing, at a stimulus amplitude of 2× threshold, was performed on normal tissue near the infarct zone. Mapping was recorded during pacing drives of 250 ms to 90 ms (decremented by 10 ms), as well as during S1-S2 pacing using a basic cycle length (BCL) of 200 ms and maximum S2 of 150 ms and decremented by 10 ms. Programmed stimulation, with up to three extrastimuli, and burst pacing (from 90 ms to 60 ms) were used to assess arrhythmia inducibility. Inducibility was defined as the ability to provoke sustained (>30 s) ventricular tachycardia (VT) or ventricular fibrillation. Maps were also captured during programmed stimulation and with all episodes of arrhythmia. […]

Cc1ccc(=O)n(-c2ccccc2)c1 [pirfenidone]
fluorescence amplitude in the border zones vs control: trend toward higher amplitudes
decrease in VT susceptibility vs control (5 wks after MI): almost three-fold decrease
rate of VT induction (5 wks after MI, controls 73.3%, p=0.027): 28.6%
conduction velocities in the border zones vs control (all pacing cycle lengths, p<0.05): significantly faster
conduction heterogeneity vs control (p=0.146): trend toward lower conduction heterogeneity
conduction heterogeneity vs control (p=0.146, listed as PFD): trend toward higher conduction heterogeneity indices in control animals
maximal rate of AP rise (dF/dt) of border zones vs control (trend at all PCLs): faster than the rise of control border zones
rise times of border zones vs control (trend at all PCLs): shorter
rise times of border zones vs control (trend at all PCLs, listed as PFD): lower than those of control border zones
